Five compounds from PubChem BioAssay AID1918952 (Molecular Pharmacology Branch, DTP, NCI, 2023) can be followed below.

“And” between values parts separate entries of the source, which are not always exact repeats. Identical values can stand only once.

The test system of the assay is LG0703-F948-PDC complex spheroid viability. Description: Anticancer human tumor LG0703-F948-PDC patient-derived lung adenocarcinoma cell line growth inhibition. The following applies: for viability, T/C: stronger effect = lower value. In short, it runs like this: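 Complex spheroids of tumor cells with HUVEC and human MSCs, exposed to iadademstat combined with other agents. Each agent tested in half-log steps from near clinical Cmax (else 10 microM top), DMSO ≤0.25%.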

Where [1] appears, read: curve of first compound, second compound 0.1 µM.
The mark [2] stands for this setting: curve of first compound, second compound 0.316 µM.
Setting [3] is: curve of first compound, second compound 1 µM.
The mark [4] stands for this setting: curve of first compound, second compound 3.16 µM.
Setting [5] is: curve of first compound, second compound 10 µM.
Setting [6] is: second compound 0.1 µM, first compound 0.0316 µM.
Where [7] appears, read: second compound 0.1 µM, first compound 0.1 µM.
The mark [8] stands for this setting: second compound 0.1 µM, first compound 0.316 µM.
Where [9] appears, read: second compound 0.1 µM, first compound 1 µM.
Setting [10] is: second compound 0.316 µM, first compound 0.0316 µM.
Setting [11] is: second compound 0.316 µM, first compound 0.1 µM.
The mark [12] stands for this setting: second compound 0.316 µM, first compound 0.316 µM.
[13] abbreviates: second compound 0.316 µM, first compound 1 µM.
The mark [14] stands for this setting: second compound 1 µM, first compound 0.0316 µM.
The mark [15] stands for this setting: second compound 1 µM, first compound 0.1 µM.
Setting [16] is: second compound 1 µM, first compound 0.316 µM.
[17] abbreviates: second compound 1 µM, first compound 1 µM.
Where [18] appears, read: second compound 3.16 µM, first compound 0.0316 µM.
[19] abbreviates: second compound 3.16 µM, first compound 0.1 µM.
Setting [20] is: second compound 3.16 µM, first compound 0.316 µM.
[21] abbreviates: second compound 3.16 µM, first compound 1 µM.
The mark [22] stands for this setting: second compound 10 µM, first compound 0.0316 µM.
Setting [23] is: second compound 10 µM, first compound 0.1 µM.
Setting [24] is: second compound 10 µM, first compound 0.316 µM.
The mark [25] stands for this setting: second compound 10 µM, first compound 1 µM.
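Note: spheroids exposed to agents for seven days before readout.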
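Throughout, for viability, T/C: 100% = DMSO vehicle control wells as normalization base.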

Regarding `CC1(C)CCC(CN2CCN(c3ccc(C(=O)NS(=O)(=O)c4ccc(NCC5CCOCC5)c([N+](=O)[O-])c4)c(Oc4cnc5[nH]ccc5c4)c3)CC2)=C(c2ccc(Cl)cc2)C1` + NC1CCC(NC2CC2c2ccccc2)CC1, the IC50 was found to be 2380 nM under setting [1]; 2180 nM under setting [2]; 2550 nM under setting [3]; 2630 nM under setting [4]; 2360 nM under setting [5]. The viability, T/C under setting [6] was 107%; the viability, T/C under setting [7] is 90.9%; the viability, T/C under setting [8] is 85.2%; the viability, T/C under setting [9] was 99.4%; the viability, T/C (second compound 0.1 µM, first compound 3.16 µM) is 34.9%; the viability, T/C (second compound 0.1 µM, first compound 10 µM) is 2.77%. Also, the viability, T/C reads like this: under setting [10], 97.3%; under setting [11], 99.2%; under setting [12], 102%; under setting [13], 112%; (second compound 0.316 µM, first compound 3.16 µM) 24.9%; (second compound 0.316 µM, first compound 10 µM) 2.76%. Besides, the viability, T/C under setting [14] was 100%; the viability, T/C under setting [15] was 119%; the viability, T/C under setting [16] was 117%; the viability, T/C under setting [17] was 103%; the viability, T/C (second compound 1 µM, first compound 3.16 µM) was 37.8%; the viability, T/C (second compound 1 µM, first compound 10 µM) is 2.92%. The viability, T/C is 126% under setting [18]; 119% under setting [19]; 135% under setting [20]; 118% under setting [21]; 36.9% (second compound 3.16 µM, first compound 3.16 µM); 2.37% (second compound 3.16 µM, first compound 10 µM). For the same compound, the viability, T/C under setting [22] is 112%; the viability, T/C under setting [23] is 114%; the viability, T/C under setting [24] is 104%; the viability, T/C under setting [25] was 99.1%; the viability, T/C (second compound 10 µM, first compound 3.16 µM) was 33.4%; the viability, T/C (second compound 10 µM, first compound 10 µM) was 2.95%.

`Nc1ccn(C2OC(CO)C(O)C2(F)F)c(=O)n1` (stereo unspecified): the viability, T/C is 64.8% and 61.2% (compound 0.000949 µM); 42.9% and 39.4% (compound 0.003 µM); 35.1% and 35% (compound 0.00949 µM); 37.9% and 33.9% (compound 0.03 µM); 36.3% and 30.8% (compound 0.0949 µM); 32.1% and 25.6% (compound 0.3 µM). Under “curve of compound”, the 50% inhibitory concentration (IC50) was 2.05 nM and 1.79 nM.

Turning to `O=C(C=Cc1cccc(S(=O)(=O)Nc2ccccc2)c1)NO`, the viability, T/C by setting is: (compound 0.00949 µM) 94.2% and 95.1%; (compound 0.03 µM) 90.9% and 90.4%; (compound 0.0949 µM) 43.7% and 43.1%; (compound 0.3 µM) 11.7% and 12.1%; (compound 0.949 µM) 1.64% and 1.58%; (compound 3 µM) 0.25% and 0.32%. For the same compound, for the setting “curve of compound”, the IC50 is 83.8 nM and 82.8 nM.

As to `COc1cc(Nc2ncc3c(n2)-c2ccc(Cl)cc2C(c2c(F)cccc2OC)=NC3)ccc1C(=O)O`, the viability, T/C was 76.9% and 95.7% (compound 0.00316 µM); 79.1% and 75.3% (compound 0.01 µM); 76.3% and 75.3% (compound 0.0316 µM); 67.7% and 64.7% (compound 0.1 µM); 39.2% and 42.6% (compound 0.316 µM); 5.79% and 5.84% (compound 1 µM). Further, the IC50 (curve of compound) was 205 nM and 196 nM.

Consider `COc1cc(Nc2ncc3c(n2)-c2ccc(Cl)cc2C(c2c(F)cccc2OC)=NC3)ccc1C(=O)O` + NC1CC1c1ccc(-c2cccc(O)c2)cc1, for which the IC50 is, setting by setting: under setting [1], 199 nM; under setting [2], 177 nM; under setting [3], 198 nM; under setting [4], 188 nM; under setting [5], 181 nM. The viability, T/C was 91.5% (second compound 0.1 µM, first compound 0.00316 µM); 85.6% (second compound 0.1 µM, first compound 0.01 µM); 91.6% under setting [6]; 76.1% under setting [7]; 32.1% under setting [8]; 3.58% under setting [9]. The viability, T/C (second compound 0.316 µM, first compound 0.00316 µM) is 95.3%; the viability, T/C (second compound 0.316 µM, first compound 0.01 µM) was 93.8%; the viability, T/C under setting [10] was 80.8%; the viability, T/C under setting [11] is 67.6%; the viability, T/C under setting [12] is 33.5%; the viability, T/C under setting [13] was 3.78%. For the same compound, the viability, T/C by setting is: (second compound 1 µM, first compound 0.00316 µM) 106%; (second compound 1 µM, first compound 0.01 µM) 100%; under setting [14], 85.6%; under setting [15], 70.5%; under setting [16], 36.3%; under setting [17], 3.36%. Moreover, the viability, T/C (second compound 3.16 µM, first compound 0.00316 µM) is 95.5%; the viability, T/C (second compound 3.16 µM, first compound 0.01 µM) was 111%; the viability, T/C under setting [18] is 94.2%; the viability, T/C under setting [19] is 70.5%; the viability, T/C under setting [20] is 33.1%; the viability, T/C under setting [21] is 4.2%. For the same compound, the viability, T/C (second compound 10 µM, first compound 0.00316 µM) was 113%; the viability, T/C (second compound 10 µM, first compound 0.01 µM) was 97.6%; the viability, T/C under setting [22] is 94.1%; the viability, T/C under setting [23] is 64.8%; the viability, T/C under setting [24] is 34.8%; the viability, T/C under setting [25] is 6.35%.

By IC50 is commonly meant the midpoint of a concentration-inhibition curve. A word on the viability, T/C: it is the result in the treated group divided by that in the control group, in per cent.
